{"source": "patent US9734282B2", "about": "“Biological dataset profiling of cardiovascular disease and cardiovascular inflammation” (DISCOVERX CORPORATION, priority 2005, dated 2017)", "key": {"[1]": {"system": "Peripheral Blood Mononuclear Cells + Endothelial Cells", "test": "BioMAP SAg system (PBMC + endothelial cells, TCR), cell-based ELISA", "set-up": "species or system human", "conditions": "for CD69 level / E-selectin level / IL-8 level: protein level drug-treated versus buffer control, 24 h", "experimental": "(§1) Human umbilical vein endothelial cells (HUVEC) were cultured according to standard methods, and plated into microtiter plates. Peripheral blood mononuclear cells (PBMC) were prepared from buffy coats from normal human donors according to standard methods. Experiments were performed by culturing HUVEC in microtiter plates in the presence of cytokines (IL-1b, 1 ng/ml; TNF-a, 5 ng/ml; and IFN-g, 100 ng/ml, or IL-4, 5 ng/ml and histamine, […]), activators (SAg, 20 ng/ml or LPS, 0.2 ng/ml), and/or PBMC (7.5×10^4 cells/well) for 24 h. Compounds were tested at the indicated concentrations. Compounds were prepared in the solvent as directed, added 1 hr before stimulation of the cells, and were present during the whole 24 hr stimulation period.\n(§2) The levels of readout parameters (proteins) were measured by cell-based ELISA. Briefly, microtiter plates are treated, blocked, and then incubated with primary antibodies or isotype control antibodies (0.01-0.5 mg/ml) for 1 hr. After washing, plates were incubated with a peroxidase-conjugated anti-mouse IgG secondary antibody or a biotin-conjugated anti-mouse IgG antibody for 1 hr followed by streptavidin-HRP for 30 min. Plates were washed and developed with TMB substrate and the absorbance (OD) was read at 450 nm (subtracting the background absorbance at 650 nm). Other readout parameters include: total protein levels (SRB assay), measuring the viability of peripheral blood mononuclear cells (incorporation of propidium iodide); and microscopic visualization. SRB was performed by staining cells with 0.1% sulforhodamine B after fixation with 10% TCA, and reading wells at 560 nm. PBMC viability was assessed by adding propidium iodide (10 mg/ml) to PBMC that had been cultured for 24 hours in the presence of activators and measuring the percentage of cells that incorporated dye by flow cytometry after 10 minutes.\n(§3) For data analysis, mean OD values (or other measurements) for each parameter were calculated from triplicate samples per experiment. The mean value obtained for each parameter in a treated sample was then divided by the mean value from an appropriate control to generate a ratio. All ratios were then log 10 transformed. An average or “trusted” profile was created by averaging 2 repeats of the experiment for each compound and concentration combination. 99% prediction envelopes (grey shading in Figures) were calculated for historical controls."}, "[2]": {"system": "HUVEC and HUVEC + PBMC systems", "test": "4 system BioMAP activity profile (3C, 4H, LPS, SAg)", "format": "cell-based, human", "conditions": "data not shown", "experimental": "as §1, §2\nFor data analysis, mean OD values (or other measurements) for each parameter were calculated from triplicate samples per experiment. […] 99% prediction envelopes (grey shading in Figures) were calculated for historical controls."}, "[3]": {"system": "Primary Human Endothelial Cells (HUVEC)", "test": "BioMAP 3C system (endothelial cells + IL-1β + TNF-α + IFN-γ), cell-based ELISA", "conditions": "for uPAR level: protein level drug-treated versus buffer control, 24 h", "experimental": "Human umbilical vein endothelial cells (HUVEC) were cultured according to standard methods, and plated into microtiter plates. Peripheral blood mononuclear cells (PBMC) were prepared from buffy coats from normal human donors according to standard methods. Experiments were performed by culturing HUVEC in microtiter plates in the presence of cytokines (IL-1b, 1 ng/ml; TNF-a, 5 ng/ml; and IFN-g, 100 ng/ml, or IL-4, 5 ng/ml and histamine, […]), activators (SAg, 20 ng/ml or LPS, 0.2 ng/ml), and/or PBMC (7.5×10^4 cells/well) for 24 h. Compounds were tested at the indicated concentrations. Compounds were prepared in the solvent as directed, added 1 hr before stimulation of the cells, and were present during the whole 24 hr stimulation period. The levels of readout parameters (proteins) were measured by cell-based ELISA. Briefly, microtiter plates are treated, blocked, and then incubated with primary antibodies or isotype control antibodies (0.01-0.5 mg/ml) for 1 hr. After washing, plates were incubated with a peroxidase-conjugated anti-mouse IgG secondary antibody or a biotin-conjugated anti-mouse IgG antibody for 1 hr followed by streptavidin-HRP for 30 min. Plates were washed and developed with TMB substrate and the absorbance (OD) was read at 450 nm (subtracting the background absorbance at 650 nm). Other readout parameters include: total protein levels (SRB assay), measuring the viability of peripheral blood mononuclear cells (incorporation of propidium iodide); and microscopic visualization. SRB was performed by staining cells with 0.1% sulforhodamine B after fixation with 10% TCA, and reading wells at 560 nm. PBMC viability was assessed by adding propidium iodide (10 mg/ml) to PBMC that had been cultured for 24 hours in the presence of activators and measuring the percentage of cells that incorporated dye by flow cytometry after 10 minutes. For data analysis, mean OD values (or other measurements) for each parameter were calculated from triplicate samples per experiment. […] 99% prediction envelopes (grey shading in Figures) were calculated for historical controls."}, "[4]": {"system": "Primary Human Endothelial Cells (HUVEC)", "test": "BioMAP 4H system (endothelial cells + IL-4 + histamine), cell-based ELISA", "conditions": "protein level drug-treated versus buffer control, 24 h", "experimental": "as §1, §2, §3"}, "[5]": {"system": "Peripheral Blood Mononuclear Cells + Endothelial Cells", "test": "BioMAP LPS system (PBMC + endothelial cells, TLR4), cell-based ELISA", "set-up": "species or system human", "experimental": "Human umbilical vein endothelial cells (HUVEC) were cultured according to standard methods, and plated into microtiter plates. Peripheral blood mononuclear cells (PBMC) were prepared from buffy coats from normal human donors according to standard methods. Experiments were performed by culturing HUVEC in microtiter plates in the presence of cytokines (IL-1b, 1 ng/ml; TNF-a, 5 ng/ml; and IFN-g, 100 ng/ml, or IL-4, 5 ng/ml and histamine, […]), activators (SAg, 20 ng/ml or LPS, 0.2 ng/ml), and/or PBMC (7.5×10^4 cells/well) for 24 h. Compounds were tested at the indicated concentrations. Compounds were prepared in the solvent as directed, added 1 hr before stimulation of the cells, and were present during the whole 24 hr stimulation period. The levels of readout parameters (proteins) were measured by cell-based ELISA. Briefly, microtiter plates are treated, blocked, and then incubated with primary antibodies or isotype control antibodies (0.01-0.5 mg/ml) for 1 hr. After washing, plates were incubated with a peroxidase-conjugated anti-mouse IgG secondary antibody or a biotin-conjugated anti-mouse IgG antibody for 1 hr followed by streptavidin-HRP for 30 min. Plates were washed and developed with TMB substrate and the absorbance (OD) was read at 450 nm (subtracting the background absorbance at 650 nm). Other readout parameters include: total protein levels (SRB assay), measuring the viability of peripheral blood mononuclear cells (incorporation of propidium iodide); and microscopic visualization. SRB was performed by staining cells with 0.1% sulforhodamine B after fixation with 10% TCA, and reading wells at 560 nm. PBMC viability was assessed by adding propidium iodide (10 mg/ml) to PBMC that had been cultured for 24 hours in the presence of activators and measuring the percentage of cells that incorporated dye by flow cytometry after 10 minutes. For data analysis, mean OD values (or other measurements) for each parameter were calculated from triplicate samples per experiment. The mean value obtained for each parameter in a treated sample was then divided by the mean value from an appropriate control to generate a ratio. All ratios were then log 10 transformed. An average or “trusted” profile was created by averaging 2 repeats of the experiment for each compound and concentration combination. 99% prediction envelopes (grey shading in Figures) were calculated for historical controls."}, "[6]": {"system": "Macrophages + HUVEC", "test": "BioMAP Mphg system (macrophages + endothelial cells + Zymosan)", "format": "cell-based, human", "experimental": "Macrophages, are generated from human peripheral blood mononuclear cells. Human peripheral blood mononuclear cells are isolated from blood by Ficoll-hypaque density gradient centrifugation as described (Ponath, JEM 183:2437, 1996). Monocytes are then isolated by negative selection using the Monocyte Isolation Kit II (Miltenyi Biotec, Germany) MACS beads according to the manufacturer's instructions. Alternatively, 10×10^6 peripheral blood mononuclear cells/ml are cultured in RPMI containing 10% fetal bovine serum for 3 hours and non-adherent lymphocytes are removed by gentle washing. The following are then applied for 7 to 8 days: MCSF (50 ng/ml) alone, or MCSF+one of the following cytokines, IL-4 (20 ng/ml), IL-6 (20 ng/ml), IFN-gamma (10 ng/ml), or GM-CSF (10 ng/ml)+IL-4 (20 ng/ml). To generate foam cells, the culture media is replaced with media containing 40% autologous serum or 40% Human AB Serum male (Cambrex Bioproducts) in RPMI+MCSF 50 ng/ml for an additional 4 to 5 days. Cells are harvested and resuspended to 10^6 cells/ml and added to confluent endothelial cells. Primary human umbilical vein endothelial cells (HUVEC) are used. Other cells that may replace HUVEC in the screen include primary microvascular endothelial cells, aortic or arteriolar endothelial cells. 7.5×10^4 cells/ml are cultured to confluence in EGM-2 (Clonetics). […]"}, "[7]": {"system": "heart transplant patients", "conditions": "cited from earlier work"}, "[8]": {"system": "Primary human umbilical artery smooth muscle cells (UASMC)", "test": "BioMAP SM3C system (smooth muscle cells + IL-1 + TNF-a + IFNg)", "format": "cell-based", "experimental": "Primary human umbilical artery smooth muscle cells (UASMC) are used. Other cells that may replace UASMC in the screen include primary aortic, bronchial, coronary artery or pulmonary artery smooth muscle cells. Other muscle cells of interest include skeletal muscle cells and cardiomyocytes. Passage 5-7 cells are used for the screen. 4×10^4 cells/ml are cultured to 100% confluence on CellBind plates (Costar) in SmGM-2 (Clonetics) containing 5% FBS. In some cases, SmGM-2 may be removed 24 hours before screen, and replaced with serum-free SmBM basal media (Clonetics) supplemented with insulin. The following are then applied for 24 hours: Factors include a combination of IL-4 (5 ng/ml), and histamine (HIS) (10 μM) or a combination of IL-1 (1 ng/ml), TNF-a (5 ng/ml) and IFNg (20 ng/ml) (SM3C) and/or thrombin (10 units/ml) for 6 and/or 24 hours. Standard concentrations of agents are employed as described in the literature. Other factors of interest include: IL-6, LPS, endothelin-1 and angiotensin II. Based on the parameters altered by the indicated factors, BioMAPs are generated for the parameters VCAM, HLA-DR, IL-8, MCP-1, Thrombomodulin, tissue factor, LDL-receptor and uPAR. […]"}, "[9]": {"conditions": "protein level drug-treated versus buffer control, 24 h"}}}
{"smiles": "S=C([S-])OC1CC2CC1C1CCCC21.[K+]", "note": "(stereo not drawn) [D609]", "values": [{"measurement": "CD69 level", "setting": "[1]", "value": "downregulation"}, {"measurement": "E-selectin level", "setting": "[1]", "value": "upregulation"}, {"measurement": "IL-8 level", "setting": "[1]", "value": "upregulation"}]}
{"smiles": "CCCCCCCCCCCCCCCCCCOCC(COP(=O)([O-])OCC[N+](C)(C)C)OC", "note": "(stereo not drawn) [ET-18-OCH3]", "values": [{"measurement": "CD69 level", "setting": "[1]", "value": "downregulation"}, {"measurement": "E-selectin level", "setting": "[1]", "value": "upregulation"}, {"measurement": "IL-8 level", "setting": "[1]", "value": "upregulation"}]}
{"smiles": "CC(C)c1c(C(=O)Nc2ccccc2)c(-c2ccccc2)c(-c2ccc(F)cc2)n1CC[C@@H](O)C[C@@H](O)CC(=O)O", "note": "[atorvastatin]", "values": [{"measurement": "BioMAP profile compared with the lovastatin profile", "setting": "[2]", "value": "induce the same BioMAP profile"}, {"measurement": "uPAR level", "setting": "[3]", "value": "significant decreases"}, {"measurement": "Eotaxin-3 level", "setting": "[4]", "value": "increases"}, {"measurement": "MCP-1 level", "setting": "[4]", "value": "significant decreases"}]}
{"smiles": "COCc1c(C(C)C)nc(C(C)C)c(/C=C/[C@@H](O)C[C@@H](O)CC(=O)O)c1-c1ccc(F)cc1", "note": "[cerevistatin]", "values": [{"measurement": "BioMAP profile compared with the lovastatin profile", "setting": "[2]", "value": "induce the same BioMAP profile"}]}
{"smiles": "CC[C@H](C)C(=O)O[C@H]1C[C@@H](C)C=C2C=C[C@H](C)[C@H](CC[C@@H]3C[C@@H](O)CC(=O)O3)[C@H]21", "note": "[lovastatin]", "values": [{"measurement": "IL-1alpha level", "setting": "[5]; [9]", "value": "significant decreases"}, {"measurement": "M-CSF level", "setting": "[5]; [9]", "value": "increases"}, {"measurement": "tissue factor level", "setting": "[5]; [9]", "value": "increases"}, {"measurement": "uPAR level", "setting": "[3]", "value": "significant decreases"}, {"measurement": "Eotaxin-3 level", "setting": "[4]", "value": "increases"}, {"measurement": "MCP-1 level", "setting": "[4]", "value": "significant decreases"}]}
{"smiles": "CC[C@H](C)C(=O)O[C@H]1CCC=C2C=C[C@H](C)[C@H](CC[C@@H]3C[C@@H](O)CC(=O)O3)[C@H]21", "note": "[mevastatin]", "values": [{"measurement": "BioMAP profile compared with the lovastatin profile", "setting": "[2]", "value": "induce the same BioMAP profile"}]}
{"smiles": "COc1c(C)c2c(c(O)c1C/C=C(\\C)CCC(=O)O)C(=O)OC2", "note": "[mycophenolic acid]", "values": [{"measurement": "MCP-1 level", "setting": "[6]", "value": "inhibition"}, {"measurement": "MCP-1 level", "setting": "[5]", "value": "inhibition"}, {"measurement": "MCP-1 level", "setting": "[1]", "value": "inhibition"}, {"measurement": "MCP-1 level", "setting": "[3]", "value": "inhibition"}, {"measurement": "long-term benefit against post-transplant vasculopathy", "setting": "[7]", "value": "protecting against post-transplant vasculopathy"}, {"measurement": "MCP-1 level", "setting": "[8]", "value": "inhibition"}]}
